Measured values from patent US20220323425A1, “CO-POTENTIATORS FOR THERAPY OF CYSTIC FIBROSIS CAUSED BY MINIMAL FUNCTION CFTR MUTANTS” (THE REGENTS OF THE UNIVERSITY OF CALIFORNIA, priority 2019, published 2022).
pEC50: −log10 of the molar value. Like-named read-outs stand apart in the source and are kept apart here.

What was measured:
Assay type in all cases: cell-based
[1] = target: N1303K-CFTR (Homo sapiens, UniProt P13569, N1303K); assay: Short-circuit current in FRT cells expressing N1303K-CFTR; design: expressed in transfected cells; host or cells: Fischer rat thyroid (FRT) cells; details: for pEC50 / Relative Vmax (%)*: Table 1B; for pEC50: cell line not given; for Relative Vmax (%)*: footnote to * not given; for short-circuit current response when added after VX-770: 20 μM forskolin, 5 μM VX-770, 20 μM test potentiator
Procedure: (§1) Short-circuit current was measured on cells cultured on permeable supports (Corning) as described (Haggie, 2017; Phuan, 2018). For FRT cells, the basolateral membrane was permeabilized with 250 μg/mL amphotericin B, and experiments were done using a HCO3^−-buffered system (in mM: 120 NaCl, 5 KCl, 1 MgCl2, 1 CaCl2), 5 Hepes, 25 NaHCO3, 10 glucose, pH 7.4) with a basolateral to apical chloride gradient (60 mM NaCl replaced by sodium gluconate in the apical solution). For human airway epithelial cells, symmetrical HCO3^−-buffered solutions (containing 120 mM NaCl) were used. Cells were equilibrated with 95% O2, 5% CO2 and maintained at 37° C. Hemichambers were connected to a DVC-1000 voltage clamp (World Precision Instruments Inc., Sarasota, Fla.) via Ag/AgCl electrodes and 3 M KCl agar bridges for recording of the short-circuit current.
(§2) GraphPad Prism software (GraphPad Inc., San Diego, Calif., USA) was used for statistical analysis. EC50 values were determined by non-linear regression to a single-site inhibition model. Statistical significance was determined using unpaired Student's t test, with P<0.05 considered significant.
Co-potentiator efficacy was initially determined by short-circuit current measurements in FRT cells expressing N1303K-CFTR in the presence of a transepithelial chloride gradient and with permeabilization of the basolateral cell membrane such that measured current directly reports CFTR channel activity. […] We previously defined potentiators as either class I compounds, including VX-770 and GLPG1837, or class II compounds such as the arylsulphonamide-pyrrolopyridine and spiro[piperidine-4,1-pyrido[3,4-b]indole] copotentiators that probably bind at distinct sites on CFTR. N1303K-CFTR expressing FRT cells treated with forskolin and GLPG1837 had similar 2i co-potentiator EC50 of 0.8±0.2 μM (FIG. 7B).

[2] = target: T1, W1282X-CFTR (Homo sapiens, UniProt P13569); assay: Structure-activity testing of co-potentiator analogs in FRT cells expressing W1282X-CFTR; details: for Relative Vmax (%)*: 100% Vmax corresponds to 20 μM ASP-11; for EC50 / pEC50: FRT cells expressing W1282X-CFTR; for EC50: read-out: EC50 (μM)); for pEC50: read-out: EC50
T1 construct: CFTR1281 (the truncation product generated by W1282X-CFTR); expressed in transfected cells
Procedure: To establish structure-activity relationships, 240 commercially available spiro[piperidine-4,1pyrido[3,4-b]indoles]analogs and 160 pyrazoloquinoline analogs were tested in FRT cells expressing W 1282X-CFTR. FIG. 5A summarizes the structural determinants for activity for the spiro[piperidine-4,1pyrido[3,4-b]indoles] reported in Table 1A (CP-Axxx designations).
High-throughput screening used a semi-automated screening platform (Beckman, Fullerton, Calif.) as described (Haggie, 2017). FRT cells expressing W1282X and YFP were plated in 96-well black-walled, clear-bottom tissue culture plates (Corning) at a density of 20,000 cells/well and grown for 24 h at 37° C. to ˜90% confluency. Cells were treated with 3 μM VX-809 for 24 hours. Cells were then washed twice with PBS, and incubated in 100 μl of PBS containing forskolin (10 μM), VX-770 (15 nM) and test compounds (25 μM) for 10 min prior to assay of CFTR activity. All plates contained wells with positive (5 μM VX-770+20 μM ASP-11) and negative (5 μM VX-770) controls. Assays were done using a BMG Labtech FLUOstar OMEGA plate reader (Cary, N.C.) over 12 s with initial fluorescence intensity recorded for 2 s prior to addition of 100 μl of NaI-substituted PBS (137 mM NaCl replaced with NaI). Initial iodide influx was computed from fluorescence intensity by single exponential regression. […]
as §2

[3] = target: T2, Q1313X-CFTR (Homo sapiens, UniProt P13569); assay: Short-circuit current in FRT cells expressing Q1313X-CFTR; details: 20 μM forskolin; for short-circuit current response when added after VX-770: 5 μM VX-770, 25 μM apigenin, others 20 μM
T2 construct: several truncated forms of CFTR resulting from premature termination codons (PTCs) located in NBD2; expressed in transfected cells; host or cells: FRT cells, pIRESpuro3 vector, puromycin-selected clonal lines
Procedure: as §1, §2

T2 sequence (P13569 1-1312 limits assumed): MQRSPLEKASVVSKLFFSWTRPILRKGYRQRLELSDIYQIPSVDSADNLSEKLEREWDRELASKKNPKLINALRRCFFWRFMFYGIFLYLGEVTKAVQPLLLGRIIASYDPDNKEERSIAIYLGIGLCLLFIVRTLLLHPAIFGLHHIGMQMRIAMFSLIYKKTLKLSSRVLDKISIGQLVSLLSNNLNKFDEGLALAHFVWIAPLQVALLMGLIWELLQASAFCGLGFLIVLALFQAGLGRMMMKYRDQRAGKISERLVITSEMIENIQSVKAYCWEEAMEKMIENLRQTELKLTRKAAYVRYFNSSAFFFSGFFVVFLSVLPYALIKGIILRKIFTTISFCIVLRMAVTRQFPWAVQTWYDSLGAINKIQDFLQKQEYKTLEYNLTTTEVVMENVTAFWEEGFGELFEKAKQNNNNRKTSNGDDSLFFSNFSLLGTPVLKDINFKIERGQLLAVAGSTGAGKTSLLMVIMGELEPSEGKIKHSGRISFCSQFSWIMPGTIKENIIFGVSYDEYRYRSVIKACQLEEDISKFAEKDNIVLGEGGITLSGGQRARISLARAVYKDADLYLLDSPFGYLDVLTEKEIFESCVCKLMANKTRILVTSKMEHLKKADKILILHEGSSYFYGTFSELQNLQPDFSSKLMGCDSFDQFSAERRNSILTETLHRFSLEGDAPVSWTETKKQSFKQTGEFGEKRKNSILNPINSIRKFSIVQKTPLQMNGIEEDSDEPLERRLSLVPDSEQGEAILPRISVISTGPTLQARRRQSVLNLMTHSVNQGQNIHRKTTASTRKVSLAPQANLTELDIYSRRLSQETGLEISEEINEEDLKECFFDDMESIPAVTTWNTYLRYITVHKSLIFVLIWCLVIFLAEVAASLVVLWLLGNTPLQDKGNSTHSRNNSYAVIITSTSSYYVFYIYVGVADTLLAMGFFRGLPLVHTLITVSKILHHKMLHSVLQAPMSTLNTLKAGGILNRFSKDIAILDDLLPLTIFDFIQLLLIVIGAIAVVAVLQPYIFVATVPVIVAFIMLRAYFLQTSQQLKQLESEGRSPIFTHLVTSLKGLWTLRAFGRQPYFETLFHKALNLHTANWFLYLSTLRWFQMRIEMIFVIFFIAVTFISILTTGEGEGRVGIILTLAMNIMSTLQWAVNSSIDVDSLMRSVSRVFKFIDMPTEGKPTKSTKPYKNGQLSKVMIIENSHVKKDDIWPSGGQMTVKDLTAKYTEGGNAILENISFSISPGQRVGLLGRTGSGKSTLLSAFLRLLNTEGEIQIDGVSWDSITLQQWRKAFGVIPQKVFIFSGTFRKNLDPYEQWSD
T1 sequence (P13569 1-1281 limits assumed): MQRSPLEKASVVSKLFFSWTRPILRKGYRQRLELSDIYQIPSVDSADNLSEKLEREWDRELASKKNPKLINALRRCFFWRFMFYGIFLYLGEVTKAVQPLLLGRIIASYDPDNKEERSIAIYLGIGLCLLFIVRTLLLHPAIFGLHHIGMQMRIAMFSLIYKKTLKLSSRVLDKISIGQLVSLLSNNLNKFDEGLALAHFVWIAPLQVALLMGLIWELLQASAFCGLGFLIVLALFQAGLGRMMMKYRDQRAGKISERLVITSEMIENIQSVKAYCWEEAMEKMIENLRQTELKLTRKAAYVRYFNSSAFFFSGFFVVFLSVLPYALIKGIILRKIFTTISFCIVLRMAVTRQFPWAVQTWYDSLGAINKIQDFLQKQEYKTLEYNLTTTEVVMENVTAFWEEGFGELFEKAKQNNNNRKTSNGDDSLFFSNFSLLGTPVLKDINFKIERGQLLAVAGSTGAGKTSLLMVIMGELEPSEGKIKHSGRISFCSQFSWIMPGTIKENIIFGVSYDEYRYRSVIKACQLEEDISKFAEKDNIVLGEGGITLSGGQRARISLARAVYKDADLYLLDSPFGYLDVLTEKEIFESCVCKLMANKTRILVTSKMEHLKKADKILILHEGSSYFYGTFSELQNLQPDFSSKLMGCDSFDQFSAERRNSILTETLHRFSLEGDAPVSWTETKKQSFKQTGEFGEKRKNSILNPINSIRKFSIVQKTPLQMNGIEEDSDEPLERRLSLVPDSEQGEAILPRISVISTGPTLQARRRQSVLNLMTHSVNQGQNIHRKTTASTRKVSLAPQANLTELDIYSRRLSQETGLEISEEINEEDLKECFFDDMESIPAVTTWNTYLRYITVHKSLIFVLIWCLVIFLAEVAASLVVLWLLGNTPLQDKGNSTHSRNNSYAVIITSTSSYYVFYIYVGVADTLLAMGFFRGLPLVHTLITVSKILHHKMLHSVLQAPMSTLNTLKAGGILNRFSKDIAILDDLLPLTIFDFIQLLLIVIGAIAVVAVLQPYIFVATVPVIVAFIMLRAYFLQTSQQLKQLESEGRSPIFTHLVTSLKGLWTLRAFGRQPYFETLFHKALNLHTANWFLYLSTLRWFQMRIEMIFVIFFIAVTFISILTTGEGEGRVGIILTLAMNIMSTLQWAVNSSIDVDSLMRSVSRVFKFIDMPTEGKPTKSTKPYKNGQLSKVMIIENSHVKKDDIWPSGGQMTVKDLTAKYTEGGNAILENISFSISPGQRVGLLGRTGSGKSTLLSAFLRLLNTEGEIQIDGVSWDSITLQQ
Sequence of N1303K-CFTR (P13569 whole entry N1303K): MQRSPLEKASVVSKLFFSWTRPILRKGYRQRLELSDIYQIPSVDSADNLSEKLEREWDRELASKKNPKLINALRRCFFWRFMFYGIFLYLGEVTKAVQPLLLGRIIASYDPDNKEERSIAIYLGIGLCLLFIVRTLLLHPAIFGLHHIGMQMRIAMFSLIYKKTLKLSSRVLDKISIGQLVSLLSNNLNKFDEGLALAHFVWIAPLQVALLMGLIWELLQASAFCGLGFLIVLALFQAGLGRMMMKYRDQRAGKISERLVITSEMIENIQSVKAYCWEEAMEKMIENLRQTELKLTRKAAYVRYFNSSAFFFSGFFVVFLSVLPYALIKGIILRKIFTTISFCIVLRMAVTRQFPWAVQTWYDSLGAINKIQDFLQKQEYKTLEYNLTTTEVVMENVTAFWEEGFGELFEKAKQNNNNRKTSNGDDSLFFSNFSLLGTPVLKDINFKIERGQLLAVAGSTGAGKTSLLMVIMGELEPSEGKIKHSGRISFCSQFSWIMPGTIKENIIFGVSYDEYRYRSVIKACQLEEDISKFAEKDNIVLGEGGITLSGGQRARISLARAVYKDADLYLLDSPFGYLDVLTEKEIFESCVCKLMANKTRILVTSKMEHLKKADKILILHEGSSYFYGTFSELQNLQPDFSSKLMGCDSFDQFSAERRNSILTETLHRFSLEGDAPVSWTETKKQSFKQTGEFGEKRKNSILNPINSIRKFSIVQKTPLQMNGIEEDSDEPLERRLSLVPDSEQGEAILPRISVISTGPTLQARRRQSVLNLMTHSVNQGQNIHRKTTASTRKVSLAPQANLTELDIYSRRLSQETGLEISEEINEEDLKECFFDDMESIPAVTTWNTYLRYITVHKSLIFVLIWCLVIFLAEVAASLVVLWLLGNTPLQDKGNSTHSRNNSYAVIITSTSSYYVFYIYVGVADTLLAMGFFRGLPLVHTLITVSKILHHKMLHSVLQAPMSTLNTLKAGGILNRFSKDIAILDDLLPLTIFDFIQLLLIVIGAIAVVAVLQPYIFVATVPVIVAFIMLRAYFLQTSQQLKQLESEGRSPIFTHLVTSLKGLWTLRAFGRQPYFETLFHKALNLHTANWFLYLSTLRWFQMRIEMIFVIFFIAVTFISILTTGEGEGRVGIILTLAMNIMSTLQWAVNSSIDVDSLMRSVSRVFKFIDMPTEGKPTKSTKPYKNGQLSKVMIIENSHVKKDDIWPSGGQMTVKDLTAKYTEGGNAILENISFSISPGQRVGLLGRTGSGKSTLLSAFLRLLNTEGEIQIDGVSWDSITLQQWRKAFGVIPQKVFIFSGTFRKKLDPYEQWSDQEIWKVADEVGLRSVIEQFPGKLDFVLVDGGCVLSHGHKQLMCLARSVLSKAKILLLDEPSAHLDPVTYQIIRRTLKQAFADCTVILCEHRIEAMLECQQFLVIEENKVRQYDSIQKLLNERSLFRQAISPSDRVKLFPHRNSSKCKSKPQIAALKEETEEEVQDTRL

| SMILES | Relative Vmax (%)* ([2]; Table 1A) | EC50 ([2]; Table 1A) | Relative Vmax (%)* ([2]; Table 2) | pEC50 ([2]; Table 2) | also measured |
| --- | --- | --- | --- | --- | --- |
| COc1ccc2[nH]c3c(c2c1)CCNC31CCN(Cc2ccc(F)c(Cl)c2F)CC1 [Compound 1j, 1-(3-Chloro-2,4-difluorobenzyl)-6′-methoxy-2′,3′,4′,9′-tetrahydrospiro[piperidine-4,1′-pyrido[3,4-b]indole]] |  |  |  |  | pEC50 [1]: 5.35; Relative Vmax (%)* [1]: 120% |
| COc1ccc2[nH]c3c(c2c1)CCNC31CCN(Cc2cc(F)c(F)c(F)c2)CC1 [Compound 2d, 6′-Methoxy-1-(3,4,5-trifluorobenzyl)-2′,3′,4′,9′-tetrahydrospiro[piperidine-4,1′-pyrido[3,4-b]indole]] |  |  |  |  | pEC50 [1]: 5.59; Relative Vmax (%)* [1]: 121% |
| COc1ccc2[nH]c3c(c2c1)CCNC31CCN(Cc2c(F)c(F)c(F)c(F)c2F)CC1 [Compound 2e, 6′-Methoxy-1-((perfluorophenyl)methyl)-2′,3′,4′,9′-tetrahydrospiro[piperidine-4,1′-pyrido[3,4-b]indole]] |  |  |  |  | pEC50 [1]: 5.68; Relative Vmax (%)* [1]: 134% |
| COc1ccc2[nH]c3c(c2c1)CCNC31CCN(Cc2ccc(F)c(F)c2F)CC1 [Compound 2g, 6′-Methoxy-1-(2,3,4-trifluorobenzyl)-2′,3′,4′,9′-tetrahydrospiro[piperidine-4,1′-pyrido[3,4-b]indole]] |  |  |  |  | pEC50 [1]: 5.39; Relative Vmax (%)* [1]: 100% |
| Fc1ccc(CN2CCC3(CC2)NCCc2c3[nH]c3ccc(Cl)cc23)c(F)c1 [Compound 5c, 6′-Chloro-1-(2,4-difluorobenzyl)-2′,3′,4′,9′-tetrahydrospiro[piperidine-4,1′-pyrido[3,4-b]indole]] |  |  |  |  | pEC50 [1]: 5.60; Relative Vmax (%)* [1]: 89% |
| COc1ccc2c3c([nH]c2c1)C1(CCN(Cc2ccc(F)cc2F)CC1)NCC3 [Compound 5d, 1-(2,4-Difluorobenzyl)-7′-methoxy-2′,3′,4′,9′-tetrahydrospiro[piperidine-4,1′-pyrido[3,4-b]indole]] |  |  |  |  | pEC50 [1]: 5.62; Relative Vmax (%)* [1]: 100% |
| COc1ccc2[nH]c3c(c2c1)CCNC31CCN(S(C)(=O)=O)CC1 [Compound A145] | 7% | > 30 µM |  |  |  |
| CCC(=O)N1CCC2(CC1)NCCc1c2[nH]c2ccc(OC)cc12 [Compound A350] | 7% | > 30 µM |  |  |  |
| c1ccc(CN2CCC3(CC2)NCCc2c3[nH]c3ccccc23)cc1 [Compound A357] | 31% | 16 µM |  |  |  |
| COc1cccc(CN2CCC3(CC2)NCCc2c3[nH]c3ccccc23)c1 [Compound A534] | 24% | 13 µM |  |  |  |
| COc1cccc(CN2CCC3(CC2)c2[nH]c4ccccc4c2CCN3C)c1 [Compound A600] | 4% | > 30 µM |  |  |  |
| COc1ccc2[nH]c3c(c2c1)CCNC31CCN(Cc2ccc(F)c(F)c2)CC1 [Compound A662] | 100% | 2.6 µM |  |  |  |
| COc1ccc2[nH]c3c(c2c1)CCNC31CCN(Cc2scnc2C)CC1 [Compound A666] | 91% | 5.1 µM |  |  |  |
| COc1ccc2[nH]c3c(c2c1)CCNC31CCN(C2CCCCC2)CC1 [Compound A714] | 18% | > 30 µM |  |  |  |
| COc1ccc2[nH]c3c(c2c1)CCNC31CCN(C)CC1 [Compound A764] | 6% | > 30 µM |  |  |  |
| O=C(c1ccccc1)N1CCC2(CC1)NCCc1c2[nH]c2ccccc12 [Compound A815] | −4% | > 30 µM |  |  |  |

| SMILES | Relative Vmax (%)* ([2]; Table 1A) | EC50 ([2]; Table 1A) | Relative Vmax (%)* ([2]; Table 2) | pEC50 ([2]; Table 2) | also measured |
| --- | --- | --- | --- | --- | --- |
| COc1ccc2[nH]c3c(c2c1)CCNC31CCN(C(=O)Cc2ccccc2)CC1 [Compound A956] | 6% | > 30 µM |  |  |  |
| COc1ccc2cc3c(N)nn(C(=O)c4ccncc4)c3nc2c1 [Compound D003] |  |  | 1% | < 4.52 |  |
| COc1ccc2cc3c(N)nn(C(=O)c4ccc(F)cc4)c3nc2c1 [Compound D010] |  |  | 24% | 5.44 |  |
| COc1ccc2cc3c(N)nn(C(=O)c4cc(OC)c(OC)c(OC)c4)c3nc2c1 [Compound D012] |  |  | 3% | < 4.52 |  |
| COc1ccc2cc3c(N)nn(C(=O)c4ccc(F)cc4Cl)c3nc2c1 [Compound D018] |  |  | 92% | 5.62 |  |
| COc1ccc2cc3c(N)nn(C(=O)c4ccc([N+](=O)[O-])c(C)c4)c3nc2c1 [Compound D025] |  |  | 3% | < 4.52 |  |
| COc1ccc2cc3c(N)nn(C(=O)Cc4ccc([N+](=O)[O-])cc4)c3nc2c1 [Compound D035] |  |  | 1% | < 4.52 |  |
| COc1ccc2cc3c(N)nn(C(=O)c4ccc(Cl)c([N+](=O)[O-])c4)c3nc2c1 [Compound D036] |  |  | 11% | < 4.52 |  |
| COc1ccc2cc3c(N)nn(C(=O)c4ccc([N+](=O)[O-])cc4Cl)c3nc2c1 [Compound D038] |  |  | 100% | 5.77 |  |
| COc1ccc2cc3c(N)nn(C(=O)Cc4ccc([N+](=O)[O-])cc4)c3nc2c1 [Compound D086] |  |  | 3% | < 4.52 |  |
| Cc1ccc2cc3c(N)nn(C(=O)c4ccc(F)cc4)c3nc2c1 [Compound D136] |  |  | 11% | 4.74 |  |
| COc1ccc2nc3c(cc2c1)c(N)nn3C(=O)c1ccc([N+](=O)[O-])cc1Cl [Compound D138] |  |  | 21% | 5.47 |  |
| CC(C)c1ccc(NC(=O)C(c2ccccc2)N(C)C(=O)Cc2c[nH]c3ccccc23)cc1 (centres unmarked) [Compound P2, N-methyl-N-[2-[[4-(1-methylethyl)phenyl]amino]-2-oxo-1-phenylethyl]-1H-indole-3-acetamide, reference compound] |  |  |  |  | short-circuit current response when added after VX-770 [1]: did not further increase current; short-circuit current response when added after VX-770 [3]: did not elevate current |
| Cc1cc(C)cc(N(Cc2ccc(Cl)cc2)S(=O)(=O)c2cccn3c(C)nnc23)c1 [W1282Xpot-C01, reference compound] |  |  |  |  | short-circuit current response when added after VX-770 [1]: activated N1303K-CFTR; activation by two Class II potentiators added together ([1]; W1282Xpot-C01 and ASP-11, 20 μM each, no Class I potentiator): little activation |
| O=c1cc(-c2ccc(O)cc2)oc2cc(O)cc(O)c12 [apigenin] |  |  |  |  | short-circuit current response when added after VX-770 [3]: showed synergy; short-circuit current response when added after GLPG1837 ([3]; 20 μM GLPG1837): showed synergy |
